Patent publication US20240400584A1, “COMPOUNDS AND METHODS FOR MODULATING SPLICING” (REMIX THERAPEUTICS INC., priority 2021, published 2024)
Where two headings read alike, the source gives them in different places.

Assays:
MYB = assay: RT-qPCR splicing assay, MYB AJ/CJ mRNA; format: cell-based; details: Homo sapiens, A673 or K562 cells, 24 hours; for IC50: decrease in canonical junction mRNA; for AC50: increase in alternative junction mRNA
How it was run: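 HTT and MYB canonical (CJ) and alternative-exon (AJ) junction transcripts quantified by one-step RT-qPCR from lysates of A673 or K562 cells treated 24 h with 11-point 3-fold dilutions (top 10 uM, ≤0.25% DMSO). Ct normalized to GAPDH, GUSB or PPIA and DMSO control (2^−ΔΔCt), expressed as % response.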

Target C = assay: Gene panel canonical junction qPCR assay, Target C CJ mRNA (Table 7); format: cell-based, human; details: read-out: Target C CJ mRNA decrease IC50
How it was run: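 Canonical-junction transcript levels are quantified by RT-qPCR after compound treatment of K562 or A673 cells. Primers or a CY5 probe overlap the exon junction; signals are normalized to GAPDH, GUSB or PPIA and to DMSO, then scaled to a set ΔCt assay window and fitted for IC50.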

SMILES	IC50 (MYB)	AC50 (MYB)	IC50 (Target C; Homo sapiens)	IC50 (Target C)
CN(c1ccc2c(n1)OCc1cc(-n3cccn3)ccc1-2)C1CC(C)(C)NC(C)(C)C1 [Compound 148]	1000 to 10000 nM	1000 to 10000 nM	1000 to 10000 nM	–
CN(c1ccc2c(n1)OCc1cc(-c3cnc(=O)[nH]c3)ccc1-2)[C@@H]1C[C@H]2CC[C@@H](C1)N2 [Compound 161]	> 10000 nM	> 10000 nM	> 10000 nM	–
CN(c1ccc2c(n1)OCc1cc(-n3ccnn3)ccc1-2)[C@@H]1C[C@H]2CC[C@@H](C1)N2 [Compound 152]	100 to 1000 nM	100 to 1000 nM	100 to 1000 nM	–
CN(c1ccc2c(n1)OCCc1cc(-c3cn[nH]c3)ccc1-2)[C@@H]1C[C@H]2CC[C@@H](C1)N2 [Compound 146]	> 10000 nM	> 10000 nM	> 10000 nM	–
CN(c1ccc2c(n1)OCc1cc(-c3ccc(=O)[nH]c3)ccc1-2)[C@@H]1C[C@H]2CC[C@@H](C1)N2 [Compound 157]	1000 to 10000 nM	1000 to 10000 nM	1000 to 10000 nM	–
COc1cc(-c2ccc3c(c2)COc2nc(N(C)[C@@H]4C[C@H]5CC[C@@H](C4)N5)ccc2-3)ccn1 [Compound 156]	100 to 1000 nM	100 to 1000 nM	100 to 1000 nM	–
CN(c1ccc2c(n1)OCc1cc(-c3cn[nH]c3)ccc1-2)C1CCNCC1 [Compound 116]	1000 to 10000 nM	1000 to 10000 nM	100 to 1000 nM	–
CN(c1ccc2c(n1)OCc1cc(-c3ccn(C)c(=O)c3)ccc1-2)[C@@H]1C[C@H]2CC[C@@H](C1)N2 [Compound 153]	100 to 1000 nM	< 100 nM	< 100 nM	–
c1cc2c(cc1-c1cn[nH]c1)COc1nc(N[C@@H]3C[C@H]4CC[C@@H](C3)N4)cnc1-2 [Compound 143]	100 to 1000 nM	1000 to 10000 nM	100 to 1000 nM	–
CN(c1ccc2c(n1)OCc1cc(-c3cnn(C)c(=O)c3)ccc1-2)[C@@H]1C[C@H]2CC[C@@H](C1)N2 [Compound 160]	100 to 1000 nM	< 100 nM	< 100 nM	–
c1cc2c(cc1-c1cn[nH]c1)COc1nc(N3CCC34CCNC4)ccc1-2 (centres unmarked) [Compound 207]	1000 to 10000 nM	100 to 1000 nM	> 10000 nM	–
C[C@H]1C[C@H](N(C)c2ccc3c(c2)OCc2cc(-c4cn[nH]c4)ccc2-3)CCN1 [Compound 102]	> 10000 nM	1000 to 10000 nM	> 10000 nM	–
CN(c1ccc2c(c1)OCc1cc(-n3cccn3)ccc1-2)[C@@H]1C[C@H]2CC[C@@H](C1)N2 [Compound 105]	> 10000 nM	> 10000 nM	–	–
COc1cc(-c2ccc3c(c2)COc2nc(N4CCC(N(C)C)C4)ccc2-3)cnn1 (centres unmarked) [Compound 306, 1-[8-(6-methoxypyridazin-4-yl)-6H-isochromeno[3,4-b]pyridin-3-yl]-N,N-dimethylpyrrolidin-3-amine]	1000 to 10000 nM	1000 to 10000 nM	1000 to 10000 nM	–
CN(c1cnc2c(n1)OCc1cc(-c3cn[nH]c3)ccc1-2)C1CC(C)(C)NC(C)(C)C1 [Compound 142]	100 to 1000 nM	1000 to 10000 nM	–	1000 to 10000 nM
CN(c1ccc2c(n1)OCc1cc(-c3cn[nH]c3)ccc1-2)C1CC(C)(C)NC(C)(C)C1 [Compound 147]	1000 to 10000 nM	1000 to 10000 nM	100 to 1000 nM	–
CN(c1ccc2c(n1)COc1cc(-n3cccn3)ccc1-2)[C@@H]1C[C@H]2CC[C@@H](C1)N2 [Compound 124]	1000 to 10000 nM	> 10000 nM	1000 to 10000 nM	–
CN(c1ccc2c(n1)OCc1cc(-c3cc(=O)n(C)cn3)ccc1-2)[C@@H]1C[C@H]2CC[C@@H](C1)N2 [Compound 162]	100 to 1000 nM	< 100 nM	< 100 nM	–
COc1cc(-c2ccc3c(c2)COc2nc(N4CCC(NC5(C)CCC5)C4)ccc2-3)cnn1 (centres unmarked) [Compound 285, 1-[8-(6-methoxypyridazin-4-yl)-6H-isochromeno[3,4-b]pyridin-3-yl]-N-(1-methylcyclobutyl)pyrrolidin-3-amine]	100 to 1000 nM	100 to 1000 nM	100 to 1000 nM	–
COc1cc(-c2ccc3c(c2)COc2nc(N4CCN[C@@H](C)C4)ccc2-3)cnn1 [Compound 287]	1000 to 10000 nM	1000 to 10000 nM	1000 to 10000 nM	–
CC1(C)CC(Nc2ccc3c(n2)COc2cc(-n4cccn4)ccc2-3)CC(C)(C)N1 [Compound 134]	1000 to 10000 nM	> 10000 nM	< 100 nM	–
CN(c1ccc2c(n1)OCCc1cc(-c3cn[nH]c3)ccc1-2)C1CC(C)(C)NC(C)(C)C1 [Compound 145]	1000 to 10000 nM	> 10000 nM	1000 to 10000 nM	–
C[C@@H]1C[C@H](N(C)c2ccc3c(c2)OCc2cc(-c4cn[nH]c4)ccc2-3)CCN1 [Compound 101]	> 10000 nM	1000 to 10000 nM	> 10000 nM	–
COc1cc(-c2ccc3c(c2)COc2nc(O[C@@H]4C[C@H]5COC[C@@H](C4)N5)ccc2-3)cnn1 [Compound 290, (exo)-7-{[8-(6-methoxypyridazin-4-yl)-6H-isochromeno[3,4-b]pyridin-3-yl]oxy}-3-oxa-9-azabicyclo[3.3.1]nonane]	100 to 1000 nM	100 to 1000 nM	100 to 1000 nM	–
